# Data reported in patent publication US12662473B2, “Inhibitors for programmed cell necrosis and preparation method therefor and use thereof” (SHANGHAI INSTITUTE OF ORGANIC CHEMISTRY, CHINESE ACADEMY OF …, priority 2019, dated 2026).
# Read-outs that look alike come from different tables or passages of the source.
# What was measured:
# FADD−/− Jurkat cells = assay: TNF-induced programmed cell necrosis inhibition, Cell Titer-Glo viability; assay type: cell-based
# Excerpt: (§1) The adopted biological assay protocol was: the programmed necroptosis effect of compounds on TNF-induced in FADD (Fas-Associated Death Domain) deficient Jurkat cells and L929 cells.
# (§2) In order to verify the inhibitory effect of the compounds of the present invention on programmed cell necrosis at the cellular level, cell types closely related to the RIP1 pathway, namely FADD deficient Jurkat cells (human peripheral blood leukemia T cell line) and L929 cells, were selected. Two different stimulation methods were used: tumor necrosis factor (TNFα) used alone, or TNFα used in combination with mitochondria-derived cysteine aspartate activator (SMAC). Cells viability was calculated by detecting chemiluminescence values, and the biological activity of the compound for inhibiting programmed cell necrosis can be obtained.
# (§3) Methods: FADD deficient Jurkat cells: FADD deficient Jurkat cells (human peripheral blood leukemia T cell line) were cultured in vitro. After growing to the logarithmic growth phase, the cells were collected, centrifuged at 1000 rpm for 5 min, the supernatant was discarded, and the cell concentration was adjusted to 2.5×10^5/mL. Cells were seeded into 384-well plates, 40 μl per well. 5 μL of Smac (50 nM) diluted in cell culture medium and 5 μL of each compound were added to the corresponding wells. After pretreatment at 37° C. for 1 h, 5 μL of TNFα (50 ng/mL) diluted in cell culture medium was added to each well of the stimulation group, and 5 μL of the culture medium was added to the control group. The plate was cultured in a cell incubator (37° C., 5% CO2) for 14 h, and 15 μl of Cell Titer-Glo solution was added to each well, then incubated for 30 min at room temperature, and intracellular ATP level was measured by detecting luminescence. The unstimulated DMSO control wells were taken as 100% cell viability. L929 cells: The L929 cells (mouse fibroblasts) were cultured in vitro, digested and diluted to 6.25×10^4/ml, and the cells were seeded into 384-well plates, 40 μl per well. The plate was placed in a cell incubator (37° C., 5% CO2) for 12 hours. 5 μL of Smac (500 nM) diluted in cell culture medium and 5 μL of each compound were added to the corresponding wells. After pretreatment at 37° C. for 1 h, 5 μL of TNFα (500 ng/mL) diluted in cell culture medium was added to each well of the stimulation group, and 5 μL of the culture medium was added to the control group. After the plate was cultured for 14 h in a cell incubator (37° C., 5% CO2), 15 μl of Cell Titer-Glo solution was added to each well. The plate was incubated at room temperature for 30 min, and intracellular ATP level was measured by detecting luminescence. The unstimulated DMSO control wells were taken as 100% cell viability. EC50 values of the compounds were calculated using Prism Graphpad statistical software.
# FADD deficient Jurkat cells: FADD deficient Jurkat cells (human peripheral blood leukemia T cell line) were cultured in vitro. After growing to the logarithmic growth phase, the cells were collected, centrifuged at 1000 rpm for 5 min, the supernatant was discarded, and the cell concentration was adjusted to 2.5×10^5/mL. Cells were seeded into 384-well plates, 40 μl per well. 5 μL of Smac (50 nM) diluted in cell culture medium and 5 μL of each compound were added to the corresponding wells. After pretreatment at 37° C. for 1 h, 5 μL of TNFα (50 ng/mL) diluted in cell culture medium was added to each well of the stimulation group, and 5 μL of the culture medium was added to the control group. After the plate was cultured in a cell incubator (37° C., 5% CO2) for 14 h, 15 μl of Cell Titer-Glo solution was added to each well. The mixture was incubated for 30 min at room temperature, and intracellular ATP level was measured by detecting luminescence. The unstimulated DMSO control wells were taken as 100% cell viability.
# L929 cells = assay: as above; assay type: cell-based, mouse; conditions: read-out: EC50 inhibitory activity on programmed cell necrosis
# Excerpt: as §1, §2, §3
# L929 cells: The L929 cells (mouse fibroblasts) were cultured in vitro, digested and diluted to 6.25×10^4/ml, and the cells were seeded into 384-well plates, 40 μl per well. The plate was placed in a cell incubator (37° C., 5% CO2) for 12 hours. 5 μL of Smac (500 nM) diluted in cell culture medium and 5 μL of each compound were added to the corresponding wells. After pretreatment at 37° C. for 1 h, 5 μL of TNFα (500 ng/mL) diluted in cell culture medium was added to each well of the stimulation group, and 5 μL of the culture medium was added to the control group. After the plate was cultured for 14 h in a cell incubator (37° C., 5% CO2), and 15 μl of Cell Titer-Glo solution was added to each well, then incubated at room temperature for 30 min, and intracellular ATP level was measured by detecting luminescence. The unstimulated DMSO control wells were taken as 100% cell viability.
# [1] = Homo sapiens, Jurkat, 14 h, TNFa + SM164, read-out: EC50 inhibitory activity on programmed cell necrosis
# [2] = Homo sapiens, Jurkat, TNFa, read-out: EC50 inhibitory activity on programmed cell necrosis
# [3] = Mus musculus, L929, 14 h, L929 cells (mouse), TNFa + SM164
# [4] = Mus musculus, L929, L929 cells (mouse), TNFa
# [5] = FADD−/− Jurkat cells (human), TNFa + SM164, read-out: EC50 inhibitory activity on programmed cell necrosis
# [6] = FADD−/− Jurkat cells (human), TNFa, read-out: EC50 inhibitory activity on programmed cell necrosis
# [7] = Mus musculus, L929, L929 cells (mouse), TNFa + SM164
SMILES,EC50 (FADD−/− Jurkat cells; [1]) [nM],EC50 (FADD−/− Jurkat cells; [2]) [nM],EC50 (L929 cells; [3]) [nM],EC50 (L929 cells; [4]) [nM],EC50 (FADD−/− Jurkat cells; [5]) [nM],EC50 (FADD−/− Jurkat cells; [6]) [nM],"EC50 (L929 cells; L929 cells (mouse), TNFa) [nM]","EC50 (L929 cells; L929 cells (mouse), TNFa + SM164) [nM]",EC50 (L929 cells; [7]) [nM]
CN(C)C(=O)c1noc([C@@H]2CCCN2C(=O)C(C)(C)Oc2ccc(Cl)cc2)n1 [QY-3-65],> 10000,> 10000,> 10000,> 10000,,,,,
Cc1noc([C@@H]2CCCN2C(=O)C(C)(C)Oc2ccc(Cl)cc2Cl)n1 [QY-3-81],1960,326,2720,704,,,,,
Cc1noc([C@@H]2CCCN2C(=O)C(C)(C)N(C)c2ccc(Cl)cc2)n1 [QY-3-86],8680,13500,> 10000,> 10000,,,,,
Cc1noc([C@@H]2CCCN2C(=O)C(C)(C)Oc2ccc(Cl)cc2C)n1 [QY-3-94],,,5220,,2960,516,1410,,
COc1cc(Cl)ccc1OC(C)(C)C(=O)N1CCC[C@H]1c1nc(C)no1 [QY-3-95],1140,102,1000,135,,,,,
Cc1noc([C@@H]2CCCN2C(=O)C(C)(C)Oc2ccc(Cl)cc2C)n1 [QY-3-96],,,,,9220,2790,> 10000,> 10000,
"CC(C)(Oc1ccc(Cl)cc1F)C(=O)N1CCCC1c1ccccc1 (stereo not drawn) [QY-3-99, 2-(4-Chloro-2-fluorophenoxy)-2-methyl-1-(2-phenylpyrrolidin-1-yl)propan-1-one]",444,61,,62,,,,,244
Cc1noc([C@@H]2CCCN2C(=O)C(C)(C)Oc2cc(Cl)c(Cl)cc2Cl)n1 [QY-4-1],> 10000,10300,> 10000,12700,,,,,
Cc1noc([C@@H]2CCCN2C(=O)C(C)(C)Oc2c(F)cc(Cl)cc2F)n1 [QY-4-2],7730,1060,16900,3950,,,,,
CC(C)(Oc1ccc(Cl)cc1)C(=O)N1CCCC1c1ccc(Cl)cc1 (stereo not drawn) [QY-4-6],776,116,292,65,,,,,
CC(C)(Oc1ccc(Cl)cc1)C(=O)N1CCCC1c1ccc(F)cc1 (stereo not drawn) [QY-4-7],825,126,652,111,,,,,
Cn1nnnc1[C@@H]1CCCN1C(=O)C(C)(C)Oc1ccc(Cl)cc1 [QY-4-11],1710,61,> 10000,> 10000,,,,,
Cn1nnc([C@@H]2CCCN2C(=O)C(C)(C)Oc2ccc(Cl)cc2)n1 [QY-4-12],5890,607,9530,1610,,,,,
Cc1noc([C@@H]2CCCN2C(=O)C(C)(C)Oc2c(F)cc(F)cc2F)n1 [QY-4-14],40600,18000,> 10000,5890,,,,,
Cc1ccccc1C1CCCN1C(=O)C(C)(C)Oc1ccc(Cl)cc1 (stereo not drawn) [QY-4-27],> 10000,2900,> 10000,3670,,,,,
CC(C)(Oc1ccc(Cl)cc1)C(=O)N1CCCC1c1ccccc1Cl (stereo not drawn) [QY-4-32],2680,712,1650,520,,,,,
CC(C)(Oc1ccc(Cl)cc1)C(=O)N1CCCC1c1cccc(Cl)c1 (stereo not drawn) [QY-4-35],> 10000,4090,> 10000,3700,,,,,

SMILES,EC50 (FADD−/− Jurkat cells; [1]) [nM],EC50 (FADD−/− Jurkat cells; [2]) [nM],EC50 (L929 cells; [3]) [nM],EC50 (L929 cells; [4]) [nM],EC50 (FADD−/− Jurkat cells; [5]) [nM],EC50 (FADD−/− Jurkat cells; [6]) [nM],"EC50 (L929 cells; L929 cells (mouse), TNFa) [nM]","EC50 (L929 cells; L929 cells (mouse), TNFa + SM164) [nM]",EC50 (L929 cells; [7]) [nM]
CC(C)(Oc1ccc(Cl)cc1)C(=O)N1CCCC1c1cccc(F)c1 (stereo not drawn) [QY-4-39],1190,274,675,189,,,,,
Cc1ccc(C2CCCN2C(=O)C(C)(C)Oc2ccc(Cl)cc2C#N)cc1 (stereo not drawn) [QY-4-66],2190,544,1280,392,,,,,
Cc1ccc(C2CCCN2C(=O)C(C)(C)Oc2ccc(Cl)cc2C(F)(F)F)cc1 (stereo not drawn) [QY-4-67],5160,1330,3930,1380,,,,,
CC(C)(Oc1ccc(Cl)cc1F)C(=O)N1CCCC1c1cccc(C#N)c1 (stereo not drawn) [QY-4-69],9380,1540,3630,650,,,,,
COc1cccc(C2CCCN2C(=O)C(C)(C)Oc2ccc(Cl)cc2F)c1 (stereo not drawn) [QY-4-70],> 10000,> 10000,> 10000,1780,,,,,
Cc1ccc(C2CCCN2C(=O)C(C)(C)Oc2ccc(Cl)cc2F)cc1 (stereo not drawn) [QY-4-75],704,83,188,43,,,,,
CC(C)(Oc1ccc(Cl)cc1F)C(=O)N1CCCC1c1ccccc1F (stereo not drawn) [QY-4-78],1100,205,724,156,,,,,
COc1ccc(C2CCCN2C(=O)C(C)(C)Oc2ccc(Cl)cc2F)cc1 (stereo not drawn) [QY-4-87],> 10000,2380,> 10000,2400,,,,,
CC(C)(Oc1ccc(Cl)cc1F)C(=O)N1CCCC1c1ccc(C#N)cc1 (stereo not drawn) [QY-4-88],4000,746,3100,1160,,,,,
CCc1ccc(C2CCCN2C(=O)C(C)(C)Oc2ccc(Cl)cc2)cc1 (stereo not drawn) [QY-4-96],6930,1460,8130,2100,,,,,
CCc1ccc(C2CCCN2C(=O)C(C)(C)Oc2ccc(Cl)cc2F)cc1 (stereo not drawn) [QY-4-99],9200,1450,9120,2510,,,,,
CC(C)c1ccc(C2CCCN2C(=O)C(C)(C)Oc2ccc(Cl)cc2F)cc1 (stereo not drawn) [QY-5-1],> 10000,> 10000,> 10000,> 10000,,,,,
CN(C)c1ccc(C2CCCN2C(=O)C(C)(C)Oc2ccc(Cl)cc2F)cc1 (stereo not drawn) [QY-5-4],> 10000,> 10000,> 10000,> 10000,,,,,
"Cc1ccc([C@@H]2CCCN2C(=O)C(C)(C)Oc2ccc(Cl)cc2F)cc1 [QY-5-22, (S)-2-(4-Chloro-2-fluorophenoxy)-2-methyl-1-(2-(p-tolyl)pyrrolidin-1-yl)propan-1-one]",683,98,,62,,,,,262
CNC(=O)c1ccc(C2CCCN2C(=O)C(C)(C)Oc2ccc(Cl)cc2F)cc1 (stereo not drawn) [QY-5-79],1060,9230,> 10000,> 10000,,,,,
CC(C)(Oc1ccc(Cl)cc1F)C(=O)N1CCCC1c1ccc(C(F)(F)F)cc1 (stereo not drawn) [QY-5-83],7720,1290,> 10000,8750,,,,,
